Results from patent publication US20240351999A1, “PYRROLYLACYLPIPERIDYLAMINE COMPOUND AND USE THEREOF” (INSTITUTE OF MATERIA MEDICA ,CHINESE ACADEMY OF MEDICAL …, priority 2021, published 2024).
Converted amounts (≈) assume the structure as drawn. Like-named read-outs stand apart in the source and are kept apart here. Each block holds one compound with its values, some of them ahead of it.

Columns and labels:
Assay in all cases: In vitro antibacterial activity (MIC), microbroth dilution
Assay type in all cases: cell-based
[1] = system: Staphylococcus aureus ATCC 29213; details: ATCC29213, 37° C., 18 h
[2] = system: Staphylococcus epidermidis ATCC 12228; details: ATCC12228, 37° C., 18 h
[3] = system: Escherichia coli ATCC 25922; details: read-out: MIC Escherichia coli ATCC 25922
[4] = system: Staphylococcus aureus ATCC 25923; details: ATCC25923, 37° C., 18 h
[5] = system: Staphylococcus aureus ATCC 43300 (MRSA); details: 37° C., 18 h, read-out: MIC Staphylococcus aureus ATCC 43300 (MRSA)
[6] = system: Staphylococcus aureus MRSA 15-1; details: 37° C., 18 h
[7] = system: Staphylococcus epidermidis MRSE 15-1; details: 37° C., 18 h
[8] = system: Enterococcus faecalis ATCC 51575; details: ATCC51575, 37° C., 18 h
[9] = system: Enterococcus faecium EFM 19-1; details: EFM191, 37° C., 18 h
[10] = system: Escherichia coli ATCC 35218; details: read-out: MIC Escherichia coli ATCC 35218
[11] = system: Escherichia coli ECO+ 15-1; details: 18 h, read-out: MIC Escherichia coli ECO+ 15-1
[12] = system: Acinetobacter baumannii ATCC 19606; details: read-out: MIC Acinetobacter baumannii ATCC 19606
[13] = system: Pseudomonas aeruginosa ATCC 27853; details: read-out: MIC Pseudomonas aeruginosa ATCC 27853
[14] = system: Klebsiella pneumoniae KPN-15-1; details: read-out: MIC Klebsiella pneumoniae KPN-15-1
[15] = system: Clostridium difficile ATCC 9689; details: Clostridioides difficile, ATCC9689, read-out: MIC Clostridium difficile ATCC 9689

SMILES: CO[C@H]1CN(c2ncc(C(C)(C)O)s2)CC[C@H]1NC(=O)c1[nH]c(C)c(Cl)c1Cl [Compound 6, 3,4-Dichloro-N-((3S,4R)-1-(5-(2-hydroxypropan-2-yl)thiazol-2-yl)-3-methoxypiperidin-4-yl)-5-methyl-1H-pyrrole-2-carboxamide]
MIC [1]: 0.25 µg/mL (≈ 0.559 µM)
MIC [2]: 0.25 µg/mL (≈ 0.559 µM)

SMILES: CO[C@H]1CN(c2ccc(C3(O)CCCC3)nn2)CC[C@H]1NC(=O)c1[nH]c(C)c(Cl)c1Cl [Compound 7, 3,4-Dichloro-N-((3S,4R)-1-(6-(1-hydroxycyclopentyl)pyridazin-3-yl)-3-methoxypiperidin-4-yl)-5-methyl-1H-pyrrole-2-carboxamide]
MIC [1]: ≤ 0.03 µg/mL
MIC [2]: 0.125 µg/mL (≈ 0.267 µM)
MIC ([3]; ATCC25922, 37° C., 18 h): 8 µg/mL (≈ 17.1 µM)

SMILES: CN[C@H](CC(C)C)C(=O)N[C@H]1C(=O)N[C@@H](CC(N)=O)C(=O)N[C@H]2C(=O)N[C@H]3C(=O)N[C@H](C(=O)N[C@H](C(=O)O)c4cc(O)cc(O)c4-c4cc3ccc4O)[C@H](O)c3ccc(c(Cl)c3)Oc3cc2cc(c3O[C@@H]2O[C@H](CO)[C@@H](O)[C@H](O)[C@H]2O[C@H]2C[C@](C)(N)[C@H](O)[C@H](C)O2)Oc2ccc(cc2Cl)[C@H]1O [Vancomycin]
MIC ([3]; ATCC25922, 18 h): > 64 µg/mL
MIC ([10]; ATCC35218, 18 h): > 64 µg/mL
MIC [11]: > 64 µg/mL
MIC ([12]; ATCC19606, 18 h): > 64 µg/mL
MIC ([13]; ATCC27853, 18 h): > 64 µg/mL
MIC ([14]; KPN151, 18 h): > 64 µg/mL
MIC [15]: 2 µg/mL (≈ 1.38 µM)

More lines, now with the values ahead:

MIC [1]: ≤ 0.03 µg/mL
MIC [2]: ≤ 0.03 µg/mL
MIC ([3]; ATCC25922, 37° C., 18 h): 16 µg/mL (≈ 33.2 µM)
SMILES: CO[C@H]1CN(c2ccc(C3(O)CCCCC3)nn2)CC[C@H]1NC(=O)c1[nH]c(C)c(Cl)c1Cl [Compound 8, 3,4-Dichloro-N-((3S,4R)-1-(6-(1-hydroxycyclohexyl)pyridazin-3-yl)-3-methoxypiperidin-4-yl)-5-methyl-1H-pyrrole-2-carboxamide]

MIC [1]: 0.25 µg/mL (≈ 0.692 µM)
MIC [4]: 0.25 µg/mL (≈ 0.692 µM)
MIC [5]: 0.25 µg/mL (≈ 0.692 µM)
MIC [6]: 16 µg/mL (≈ 44.3 µM)
MIC [2]: 0.125 µg/mL (≈ 0.346 µM)
MIC [7]: 4 µg/mL (≈ 11.1 µM)
MIC [8]: 0.5 µg/mL (≈ 1.38 µM)
MIC [9]: 0.5 µg/mL (≈ 1.38 µM)
MIC ([3]; ATCC25922, 37° C., 18 h): ≤ 0.06 µg/mL
MIC ([10]; ATCC35218, 37° C., 18 h): ≤ 0.06 µg/mL
MIC ([11]; 37° C.): 8 µg/mL (≈ 22.1 µM)
MIC ([12]; ATCC19606, 37° C., 18 h): 0.25 µg/mL (≈ 0.692 µM)
MIC ([13]; ATCC27853, 37° C., 18 h): 2 µg/mL (≈ 5.53 µM)
MIC ([14]; KPN151, 37° C., 18 h): 0.5 µg/mL (≈ 1.38 µM)
SMILES: C[C@H]1COc2c(N3CCN(C)CC3)c(F)cc3c(=O)c(C(=O)O)cn1c23 [Levofloxacin, reference compound]
